# What was measured:
# Colletotrichum capsici = Colletotrichum capsici (Anthracnose): radial mycelial growth on potato dextrose agar; format: cell-based; conditions: Colletotrichum truncatum, 168 h, 25° C., 60% relative humidity, seven days, read-out: control (radial growth compared to the untreated check)
# Phakopsora pachyrhizi = Phakopsora pachyrhizi Test on Soybean (preventive activity, greenhouse); format: in vivo; conditions: preventive spray on young Soybean plants, inoculated one day after treatment, rated 3, 7, 10 and 15 days after application, read-out: Efficacy (% control), disease severity compared to the untreated check
# Summary of the method: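 Preventive greenhouse test: young soybean plants sprayed with compound in 2% DMSO/acetone plus emulsified water at stated rates, inoculated one day later with 2×10^5 P. pachyrhizi conidia, held at 22-24° C and 80-90% RH. Disease severity (0-100%) rated 3, 7, 10 and 15 days after application; % control relative to untreated plants.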
# Pyricularia Oryzae = experiment: microbe, parasite or virus in culture; format: cell-based; conditions: 168 h, read-out: control (radial growth compared to the untreated check)
# Botrytis cinerea = Botrytis cinerea (Gray Mold): radial mycelial growth on potato dextrose agar; format: cell-based; conditions: 300 ppm, 22° C., 90% relative humidity, seven days
smiles,measurement,setting,value
"COCCNC(=O)c1cn2cc(-c3noc(C(F)(F)F)n3)ccc2n1 [Compound 65, N-(2-methoxyethyl)-6-(5-(trifluoromethyl)-1,2,4-oxadiazol-3-yl)imidazo[1,2-a]pyridine-2-carboxamide]",inhibition of growth at 300 ppm,Colletotrichum capsici,≥ 70%
same,pest or weed control at 500 ppm,Phakopsora pachyrhizi,≥ 70%
"O=C(c1cn2cc(-c3noc(C(F)(F)F)n3)ccc2n1)N1CCC1 [Compound 69, azetidin-1-yl(6-(5-(trifluoromethyl)-1,2,4-oxadiazol-3-yl)imidazo[1,2-a]pyridin-2-yl)methanone]",inhibition of growth at 300 ppm,Colletotrichum capsici,≥ 70%
same,pest or weed control at 500 ppm,Phakopsora pachyrhizi,≥ 70%
"CCOCc1cn2cc(-c3noc(C(F)(F)F)n3)ccc2n1 [Compound 80, 3-(2-(ethoxymethyl)imidazo[1,2-a]pyridin-6-yl)-5-(trifluoromethyl)-1,2,4-oxadiazole]",inhibition of growth at 300 ppm,Pyricularia Oryzae,≥ 70%
same,control (radial growth compared to the untreated check),Botrytis cinerea,≥ 70%
"FC(F)(F)c1nc(-c2ccc3nc(CSc4cc(Cl)cc(Cl)c4)cn3c2)no1 [Compound 111, 3-(2-(((3,5-dichlorophenyl)thio)methyl)imidazo[1,2-a]pyridin-6-yl)-5-(trifluoromethyl)-1,2,4-oxadiazole]",inhibition of growth at 300 ppm,Colletotrichum capsici,≥ 70%
same,pest or weed control at 500 ppm,Phakopsora pachyrhizi,≥ 70%
"CC(C)CSCc1cn2cc(-c3noc(C(F)(F)F)n3)ccc2n1 [Compound 112, 3-(2-((isobutylthio)methyl)imidazo[1,2-a]pyridin-6-yl)-5-(trifluoromethyl)-1,2,4-oxadiazole]",inhibition of growth at 300 ppm,Colletotrichum capsici,≥ 70%
same,pest or weed control at 500 ppm,Phakopsora pachyrhizi,≥ 70%
"O=S(=O)(Cc1cn2cc(-c3noc(C(F)(F)F)n3)ccc2n1)c1ccccc1 [Compound 116, 3-(2-((phenylsulfonyl)methyl)imidazo[1,2-a]pyridin-6-yl)-5-(trifluoromethyl)-1,2,4-oxadiazole]",inhibition of growth at 300 ppm,Colletotrichum capsici,≥ 70%
same,pest or weed control at 500 ppm,Phakopsora pachyrhizi,≥ 70%
